Test results: publication PMC8308784, “Novel Purine Chemotypes with Activity against Plasmodium falciparum and Trypanosoma cruzi” (Pharmaceuticals, 2021)
Like-named read-outs stand apart in the source and are kept apart here.

How the values were obtained:
P. falciparum 3D7 [1] = assay: P. falciparum primary screening at three fixed concentrations; format: cell-based; settings: average of at least three experiments; for activity at 1 µM / activity at 10 µM / activity at 100 µM: Plasmodium falciparum, read-out: Primary screening, parasite growth relative to the negative control; for activity at 1 µM: 3D7, compound at 1 µM; for activity at 10 µM: 3D7, compound at 10 µM; for activity at 100 µM: 3D7, compound at 100 µM
Description: (§1) Apicomplexan parasite cultures were maintained at 3% hematocrit under an atmosphere of 37 °C in 93% N2, 5% CO2, and 2% O2, following standard methods. Synchronized cultures were obtained via 5% sorbitol lysis.
[…] Conditions were tested in triplicate for every concentration, and the test was repeated when the standard deviation was above 10% for any concentration. Z-values varied between 0.83 and 0.98 in the different plates analyzed. Selected compounds (12.3% potential hit rate) were further analyzed via standard growth inhibition assays, carried out as previously described in [54]. Briefly, parasitemia was adjusted to 1–1.3%, with >90% rings after sorbitol synchronization. Two hundred microliters of parasite culture were plated in 96-well microplates and incubated for 48 h at 37 °C in the presence of decreasing concentrations of the tested compounds, in triplicate. Parasitemia was determined by fluorescence-assisted cell sorting (FACS). Non-infected RBCs and samples containing parasitized RBCs (including controls with DMSO as carrier solvent) were diluted in PBS to a final concentration of ~1–10 × 10^6 cells/mL. The cell suspension was stained with SYTO 11 (0.5 mM stock in DMSO, Thermo Fisher Scientific, Waltham, MA, USA), to a final concentration of 0.5 μM. Samples were analyzed in a Becton Dickinson FACSCalibur. Sample excitation was carried out using a 488-nm, air-cooled argon-ion laser at a power of 15 mW, using forward and side scatter to gate the RBC population, and SYTO 11 green fluorescence (530 nm, FITC filter) was collected in a logarithmic scale. The single-cell population was selected on a forward–side scattergram, and the green fluorescence from this population was analyzed. Parasitemia was expressed as the number of parasitized cells per 100 erythrocytes.
(§2) Absorbance values derived from the anti-T. cruzi assays and fluorescence values from the anti-P. falciparum and cell toxicity assays were normalized to the controls. In the primary screening at three fixed doses, the compounds’ inhibitory activity was expressed as a percentage of the negative control (100% parasitic growth). In dose–response assays, the compounds’ IC50 and TC50 values were determined with GraphPad Prism 7 software (version 7.00, 2016), using a non-linear regression analysis model defined by the following equation: Y=100 ÷(1+10^((LogIC50−X)×HillSlope))

Vero cells = assay: Vero cell toxicity assay (alamarBlue); format: cell-based, green monkey; settings: 4 days; minimum value of the 95% CI, except BNZ (mean (SD))
Description: Human erythrocytes were purified from B+ Rh+ blood samples and maintained at 4 °C in incomplete RPMI medium. Vero (green monkey kidney epithelial cells), LLC-MK2 (Rhesus monkey kidney epithelial cells), and HepG2 (human liver epithelial cells) cultures were cultivated in DMEM supplemented with 1% penicillin–streptomycin (PS) and 10% heat-inactivated fetal bovine serum (FBS) at 37 °C, 5% CO2, and >95% humidity, as described in [31]. HepG2 cells were also supplemented with 10% non-essential amino acids. Vero and MK2 cells were passaged twice per week at 1:12 ratios, while HepG2 cells were passaged at a 1:8 ratio.
Vero and HepG2 cells were detached, centrifuged, and resuspended in DMEM without phenol red. Cell viability was checked upon cell counting with trypan blue staining. Then, Vero and HepG2 cells were diluted at a concentration of 5 × 10^5 and 3.2 × 10^5 cells per mL, respectively, before adding 100 µL per well to the 96-well plate. Each run contained its own negative (untreated cells) and positive (medium alone) controls. Plates were incubated at 37 °C for 4 days in the case of Vero, or 2 in the case of HepG2 cells. Assay readout was made by adding 50 µL per well of a PBS solution containing 10% alamarBlue reagent (Thermo Fisher Scientific); then, plates were incubated for another 6 h at 37 °C, before recording the fluorescence intensity with a Tecan Infinite M Nano+ reader (excitation: 530 nm, emission: 590 nm).
as §2

[2] = system: T. cruzi intracellular amastigotes; assay: Antiamastigote growth inhibition assay; format: cell-based; settings: intracellular amastigotes in Vero cells; mean (SD); read-out: T. cruzi IC50 b (antiamastigote assay)
Description: Vero cells were seeded in T-175 flasks (5 × 10^6 cells per flask) in DMEM supplemented with 1% penicillin–streptomycin and 10% FBS, and cultured for 24 h. Then, cells were washed once with PBS, and free-swimming trypomastigotes (1 × 10^7 trypomastigotes per flask; MOI = 1) in assay medium were added and allowed 18 h to infect. After that, infected cell monolayers were washed with PBS and detached. Cells were counted and diluted to a concentration of 5 × 10^5 cells per mL, before adding 100 µL per well to test plates already containing the drugs dispensed as described above. In all cases, we included BNZ as control drug, and each plate contained its own negative (Vero cells and parasites) and positive (Vero cells) controls.
as §2

[3] = system: T. cruzi Tulahuen strain expressing β-galactosidase; assay: anti-T. cruzi dose-response growth inhibition assay (Vero cells plus trypomastigotes, CPRG readout); format: cell-based
Description: (§3) T. cruzi parasites from the Tulahuen strain (discrete typing unit (DTU) VI) expressing β-galactosidase were maintained in culture by the infection of LLC-MK2 cells in DMEM supplemented with 2% FBS and 1% penicillin–streptomycin–glutamine (PSG), as described in [52]. When free-swimming trypomastigotes were released to the culture medium, they were centrifuged for 7 min at 2500 rpm and allowed to swim out of the pellet. Trypomastigotes were used to maintain the parasite cycle, or for the performance of the antiparasitic assays.
(§4) T. cruzi growth was primarily analyzed under three different concentrations (100, 10, and 1 mM) of the 81 compounds. Conditions were tested in triplicate for every concentration. Z-values varied between 0.81 and 0.92 in the different plates analyzed. Selected compounds (34.6% potential hit rate) were further analyzed via standard growth inhibition assays. The Z-values of dose–response assays correlated with those previously reported. For both assays, Vero cells and trypomastigotes from the Tulahuen T. cruzi strain expressing β-galactosidase were harvested, centrifuged, and resuspended in DMEM without phenol red supplemented with 1% PSG, 2% FBS, 1 mM sodium pyruvate, and 25 mM HEPES. Vero cells and trypomastigotes were counted, diluted at a concentration of 1 × 10^6 cells/mL each, and mixed 1:1 (v/v). Then, 100 μL of that mixture was added per well to the plates already containing the compounds. Each well contained 50,000 host cells and 50,000 parasites, i.e., multiplicity of infection (MOI) = 1. BNZ was used as control of maximal drug growth inhibition in each round, whereas each plate contained its own negative control (maximum parasite growth; Vero cells plus parasites without drugs) and positive control (minimum parasite growth; trypomastigote forms alone marking an enzymatic zero time or baseline galactosidase activity). After four days at 37 °C, 50 µL of a PBS solution containing 0.25% NP40 and 500 µM chlorophenol red-β-D-galactopyranoside (CPRG) substrate were added per well [32]. Plates were incubated at 37 °C for 4 h, and their absorbance read out at 590 nm using an Epoch Gene5 spectrophotometer.
as §2

[4] = system: T. cruzi Tulahuen strain expressing β-galactosidase; assay: T. cruzi primary screening at three fixed concentrations; format: cell-based; settings: for activity at 100 µM / activity at 1 µM / activity at 10 µM: Trypanosoma cruzi, TULAHUEN; for activity at 100 µM: read-out: Primary screening, growth inhibition values at 100 µM; for activity at 1 µM: read-out: Primary screening, growth inhibition values at 1 µM; for activity at 10 µM: read-out: Primary screening, growth inhibition values at 10 µM
Description: as §3
as §4, with “T. cruzi growth was primarily analyzed under three different concentrations (100, 10, and 1 mM) of the 81 compounds.” left out
as §2

P. falciparum 3D7 [5] = assay: P. falciparum dose-response growth inhibition assay (FACS, SYTO 11); format: cell-based; settings: P. falciparum 3D7, 48 h, mean (SD)
Description: as §1
P. falciparum growth was primarily analyzed under 3 different concentrations ([…]) of the 81 compounds. Conditions were tested in triplicate for every concentration, and the test was repeated when the standard deviation was above 10% for any concentration. Z-values varied between 0.83 and 0.98 in the different plates analyzed. Selected compounds (12.3% potential hit rate) were further analyzed via standard growth inhibition assays, carried out as previously described in [54]. Briefly, parasitemia was adjusted to 1–1.3%, with >90% rings after sorbitol synchronization. Two hundred microliters of parasite culture were plated in 96-well microplates and incubated for 48 h at 37 °C in the presence of decreasing concentrations of the tested compounds, in triplicate. Parasitemia was determined by fluorescence-assisted cell sorting (FACS). Non-infected RBCs and samples containing parasitized RBCs (including controls with DMSO as carrier solvent) were diluted in PBS to a final concentration of ~1–10 × 10^6 cells/mL. The cell suspension was stained with SYTO 11 (0.5 mM stock in DMSO, Thermo Fisher Scientific, Waltham, MA, USA), to a final concentration of 0.5 μM. Samples were analyzed in a Becton Dickinson FACSCalibur. Sample excitation was carried out using a 488-nm, air-cooled argon-ion laser at a power of 15 mW, using forward and side scatter to gate the RBC population, and SYTO 11 green fluorescence (530 nm, FITC filter) was collected in a logarithmic scale. The single-cell population was selected on a forward–side scattergram, and the green fluorescence from this population was analyzed. Parasitemia was expressed as the number of parasitized cells per 100 erythrocytes.
as §2

[6] = Vero cells plus trypomastigotes, MOI 1, four days, mean (SD), read-out: T. cruzi IC50 a (anti-T. cruzi assay)
[7] = compound at 1 µM, average of at least three independent experiments
[8] = compound at 10 µM, average of at least three independent experiments
[9] = Plasmodium falciparum, 3D7, 48 h

Compound	Primary screening, parasite growth relative to the negative control (P. falciparum 3D7 [1]; compound at 1 µM)	Primary screening, parasite growth relative to the negative control (P. falciparum 3D7 [1]; compound at 10 µM)	Primary screening, parasite growth relative to the negative control (P. falciparum 3D7 [1]; compound at 100 µM)	Vero Cells TC50 (Vero cells)	IC50 [2]	IC50 [3, 6]	activity at 1 µM (P. falciparum 3D7 [1])	activity at 10 µM (P. falciparum 3D7 [1])	activity at 100 µM (P. falciparum 3D7 [1])	activity at 100 µM [4]	activity at 1 µM [4, 7]	activity at 10 µM [4, 8]	IC50 (P. falciparum 3D7 [5])	IC50 (P. falciparum 3D7 [5]; [9])	IC50 ([3]; Trypanosoma cruzi, TULAHUEN, Vero, anti-T. cruzi IC50 of non-progressed compounds, read-out: Dose-response assay IC50)	Primary screening, growth inhibition values at 1 µM [4, 7]	Primary screening, growth inhibition values at 10 µM [4, 8]
C#CCOc1ncnc2c1ncn2N1CCN(C)CC1 [Compound 93]	107.86%	104.00%	105.52%	>2000 µM	218 µM	1.42 µM											
c1ccc(-c2nc3c(OCc4cn(Cc5cscn5)nn4)ncnc3n2N2CCCCC2)cc1 [Compound 76]				>500 µM			95.7%	84.3%	15.2%	49.8%	89.4%	88.2%	18.3 µM	~20 µM			
c1ccc(COc2ncnc3c2ncn3Cc2ccccc2)cc1 [MJ11]							103%	102%	31.8%	6.06%	91.4%	85.5%			17.7 µM		
COc1cccc(-n2cc(COc3ncnc4c3ncn4N3CCN(C)CC3)nn2)c1 [Compound 94]	128.84%	125.18%	104.00%	>60 µM	75.1 µM	0.92 µM											
CN1CCN(n2c(-c3ccccc3)nc3c(OCc4cn(Cc5cscn5)nn4)ncnc32)CC1 [Compound 84]	96.34%	88.61%	13.94%	>70 µM									28 µM			93.615	93.94
COc1cccc(-n2cc(COc3ncnc4c3ncn4C(C)(C)C)nn2)c1 [Compound 88]	92.13%	81.69%	21.43%	>180 µM	35.4 µM	12.7 µM							65.3 µM				
COc1ccccc1-n1cc(COc2ncnc3c2nc(-c2ccccc2)n3N(C)C)nn1 [Compound 33]				>300 µM			96.3%	85.4%	22.5%	21.5%	91.5%	63.3%	19.2 µM	~20 µM			
